# Laboratory results taken from patent US20230312631A1, “EXTRUSION PROCESS FOR THE PREPARATION OF A SOLID ALLULOSE COMPOSITION” (SAVANNA INGREDIENTS GMBH, priority 2020, published 2023).
# Like-named read-outs stand apart in the source and are kept apart here.
# Experiments:
# [1] = Mutarotation: angle of rotation over time after dissolving allulose in water (polarimeter); assay type: physicochemical; conditions: 23° C.; for angle of rotation: desalted water, DS about 26 wt.-%
# Method: Crystalline allulose was dissolved in water (DS 26 wt.-%). Quickly afterwards, the sample was placed in a polarimeter and the angle of rotation was read off at regular intervals ([…], 23° C.). From this, the angle of rotation was then plotted over time (see FIG. 1). 74.30 g of water and 26.05 g of crystalline allulose were mixed. The mixture was briefly stirred with a stir bar until the allulose was completely dissolved. Then a sample was placed in the polarimeter and the angle of rotation of the same sample was measured at regular intervals. There were approximately 5 minutes between the addition of the allulose and the first measured value (0 min).
# Mutarotation of solid allulose obtained in accordance with the present invention was compared to mutarotation of highly crystalline allulose. For this purpose, solutions at a dry substance content of about DS 26 wt.-% were prepared from powdery compositions each having a particle size within the range of from 100 to 200 μm (sieve fraction).
# 15.61 g of powdery crystalline allulose (comparative) of grain size 100-200 μm were dissolved at 23° C. in 47.6 g desalted water in a 500 mL beaker. The angle of rotation was measured over time with a polarimeter.
# 13.00 g of extruded allulose (inventive) of grain size 100-200 μm were dissolved at 23° C. in 37.07 g desalted water in a 500 mL beaker. The angle of rotation was measured over time with a polarimeter.
# For the sake of better comparability, the specific angle of rotation [(° *ml)/(dm*g)] was calculated for each measured value. The results are visualized in FIG. 2.
# [2] = Preliminary tests to estimate supersaturation and undercooling of carbohydrates in water; assay type: physicochemical
# Description: Therefore, preliminary tests were made in order to estimate supersaturation and overcooling of various carbohydrates in water under different conditions.
# [3] = cited from earlier work
# [4] = cited from earlier work; remark: listed apart in the source
# [5] = cited from earlier work; remark: listed apart in the source
# [6] = mass fraction 70% prior to evaporation, temperature 150° C.
# [7] = mass fraction 80% prior to evaporation, temperature 190° C.
# [8] = in water, 13C NMR (du Penhoat et al.)
# [9] = mass fraction 90%, temperature 58° C.
# [10] = mass fraction 80%, temperature 149° C.
compound,measurement,setting,value
"O=C(CO)C(O)C(O)C(O)CO [allulose, D-allulose]",time until the angle of rotation remains constant (chiral species in solution equilibrated),"[1]; 26.05 g crystalline allulose in 74.30 g water, DS 26 wt.-%, FIG. 1",more than 1 hour
same,supersaturation,[2]; [6],−27%
same,undercooling,[2]; [6],−54K
same,supersaturation,[2]; [7],−19%
same,undercooling,[2]; [7],−94K
same,solubility,[3]; 25° C.,291 g per 100 g water
same,solubility in water,[3]; 25° C.,291 g in 100 g of water
same,solubility in water expressed as mass fraction,[3]; 25° C.,74%
same,solubility in water,[3]; 50° C.,489 g in 100 g of water
same,solubility in water expressed as mass fraction,[3]; 50° C.,83%
same,rate constant k of development of open-chain carbonyl-form in solution (first-order),[4]; absorbance at 280 nm after dissolution,4.44 ms^−1
same,equilibrium content of carbonyl-form,[4]; in solution,about 0.2%
same,percent composition of anomeric forms: keto form,[5]; in D2O at 303.15 K,0.2%
same,percent composition of anomeric forms: α-furanose,[5]; in D2O at 303.15 K,39%
same,percent composition of anomeric forms: α-pyranose,[5]; in D2O at 303.15 K,22%
same,percent composition of anomeric forms: β-furanose,[5]; in D2O at 303.15 K,15%
same,percent composition of anomeric forms: β-pyranose,[5]; in D2O at 303.15 K,24%
same,equilibrium composition: α-furanose,[5]; [8],37%
same,equilibrium composition: α-pyranose,[5]; [8],~26%
same,equilibrium composition: β-furanose,[5]; [8],~11%
same,equilibrium composition: β-pyranose,[5]; [8],~26%
"O=C(CO)C(O)C(O)C(O)CO (stereo not drawn) [comparative, allulose]",angle of rotation,[1]; time 0 min,−33.4 °
same,angle of rotation,[1]; time 0.5 min,−31.1 °
same,angle of rotation,[1]; time 1 min,−29 °
same,angle of rotation,[1]; time 1.5 min,−27 °
same,angle of rotation,[1]; time 2 min,−25.1 °
same,angle of rotation,[1]; time 2.5 min,−23.35 °
same,angle of rotation,[1]; time 3 min,−21.7 °
same,angle of rotation,[1]; time 3.5 min,−20.13 °
same,angle of rotation,[1]; time 4 min,−18.71 °
same,angle of rotation,[1]; time 4.5 min,−17.36 °
same,angle of rotation,[1]; time 5 min,−16.1 °
same,angle of rotation,[1]; time 5.5 min,−14.91 °
same,angle of rotation,[1]; time 6 min,−13.8 °
same,angle of rotation,[1]; time 6.5 min,−12.78 °
same,angle of rotation,[1]; time 7 min,−11.81 °
same,angle of rotation,[1]; time 7.5 min,−10.9 °
same,angle of rotation,[1]; time 8 min,−10.05 °
same,angle of rotation,[1]; time 8.5 min,−9.25 °
same,angle of rotation,[1]; time 9 min,−8.51 °
same,angle of rotation,[1]; time 9.5 min,−7.81 °
same,angle of rotation,[1]; time 10 min,−7.18 °
same,angle of rotation,[1]; time 10.5 min,−6.57 °
same,angle of rotation,[1]; time 11 min,−6 °
same,angle of rotation,[1]; time 11.5 min,−5.47 °
same,angle of rotation,[1]; time 12 min,−4.98 °
same,angle of rotation,[1]; time 12.5 min,−4.51 °
same,angle of rotation,[1]; time 13 min,−4.08 °
same,angle of rotation,[1]; time 13.5 min,−3.67 °
same,angle of rotation,[1]; time 14 min,−3.29 °
same,angle of rotation,[1]; time 14.5 min,−2.93 °
same,angle of rotation,[1]; time 15 min,−2.6 °
same,angle of rotation,[1]; time 15.5 min,−2.29 °
same,angle of rotation,[1]; time 16 min,−2 °
same,angle of rotation,[1]; time 16.5 min,−1.72 °
same,angle of rotation,[1]; time 17 min,−1.47 °
same,angle of rotation,[1]; time 17.5 min,−1.23 °
same,angle of rotation,[1]; time 18 min,−1 °
same,angle of rotation,[1]; time 18.5 min,−0.8 °
same,angle of rotation,[1]; time 19 min,−0.6 °
same,angle of rotation,[1]; time 19.5 min,−0.41 °
same,angle of rotation,[1]; time 20 min,−0.24 °
same,angle of rotation,[1]; time 20.5 min,−0.08 °
same,angle of rotation,[1]; time 21 min,0.07 °
same,angle of rotation,[1]; time 21.5 min,0.22 °
same,angle of rotation,[1]; time 22 min,0.35 °
same,angle of rotation,[1]; time 22.5 min,0.47 °
same,angle of rotation,[1]; time 23 min,0.59 °
same,angle of rotation,[1]; time 23.5 min,0.7 °
same,angle of rotation,[1]; time 24 min,0.8 °
same,angle of rotation,[1]; time 24.5 min,0.9 °
same,angle of rotation,[1]; time 25 min,0.99 °
same,angle of rotation,[1]; time 25.5 min,1.07 °
same,angle of rotation,[1]; time 26 min,1.15 °
same,angle of rotation,[1]; time 26.5 min,1.22 °
same,angle of rotation,[1]; time 27 min,1.29 °
same,angle of rotation,[1]; time 27.5 min,1.36 °
same,angle of rotation,[1]; time 28 min,1.42 °
same,angle of rotation,[1]; time 28.5 min,1.48 °
same,angle of rotation,[1]; time 29 min,1.53 °
same,angle of rotation,[1]; time 29.5 min,1.58 °
same,angle of rotation,[1]; time 30 min,1.63 °
same,angle of rotation,[1]; time 35 min,1.96 °
same,angle of rotation,[1]; time 40 min,2.13 °
same,angle of rotation,[1]; time 45 min,2.22 °
same,angle of rotation,[1]; time 50 min,2.26 °
same,angle of rotation,[1]; time 55 min,2.29 °
same,angle of rotation,[1]; time 60 min,2.30 °
OC[C@H]1O[C@H](OC[C@H]2OC(O)(CO)[C@@H](O)[C@@H]2O)[C@H](O)[C@@H](O)[C@@H]1O (stereo partly drawn) [isomaltulose],supersaturation,[2]; [9],35%
same,undercooling,[2]; [9],62K
OC[C@H]1O[C@@](CO)(O[C@H]2O[C@H](CO)[C@@H](O)[C@H](O)[C@H]2O)[C@@H](O)[C@@H]1O [sucrose],supersaturation,[2]; [10],−14%
same,undercooling,[2]; [10],37K
OC[C@@]1(O)OC[C@@H](O)[C@@H](O)[C@H]1O [β-D-psicopyranose],Mutarotation [α],[4]; in water,about −85 deg dm^−1 cm^3
